Marks after values point to notes of the source that are not given here.
Columns and labels:
Septoria tritici = test: Test J: wheat leaf blotch, preventive spray on wheat seedlings; format: in vivo
From the text: A dash (-) indicates no test results.

[1] = system: Colletotrichum orbiculare; test: Test B: cucumber Colletotrichum anthracnose, preventive spray on cucumber seedlings
[2] = system: Erysiphe graminis f. sp. tritici; test: Test L: wheat powdery mildew, preventive spray on wheat seedlings
Septoria nodorum = test: Test H: wheat glum blotch, preventive spray on wheat seedlings
Description: (the causal agent of wheat glum blotch) and incubated in a saturated atmosphere at 20° C. for 48 h, and then moved to a growth chamber at 22° C. for 5 days, after which disease ratings were made.

[3] = system: Puccinia recondita f. sp. tritici; test: Test K: wheat leaf rust, preventive spray on wheat seedlings
Rhizoctonia oryzae = test: Test G: turf brown patch, preventive spray on creeping bent grass seedlings
Description: (the causal agent of turf brown patch) and incubated in a saturated atmosphere at 27° C. for 24 h, and then moved to a growth chamber at 27° C. for 5 days, after which disease ratings were made.

Plasmopara viticola = test: Test D: grape downy mildew, spray after inoculation of grape seedlings; format: in vivo; details: 200 ppm
From the text: Upon removal, disease ratings were made. […] A dash (-) indicates no test results.

Phytophthora infestans = test: whole plant or invertebrate; format: in vivo; details: 200 ppm
Pythium aphanidermatum = test: Test A: bluegrass pythium blight, preventive spray on bluegrass seedlings; details: 200 ppm
fusarium graminearium = test: Test I: wheat head scab, preventive spray on wheat seedlings; details: 200 ppm
Description: (the causal agent of wheat head scab) and incubated in a saturated atmosphere at 20° C. for 72 h, and then moved to a growth chamber at 22° C. for 5 days, after which disease ratings were made.

Botrytis cinerea = test: Test E: tomato botrytis, preventive spray on tomato seedlings

Structure (SMILES) | Test J disease control rating (Septoria tritici; 200 ppm) | Test B disease control rating ([1]; 200 ppm) | Test L disease control rating ([2]; 200 ppm) | Test H disease control rating (Septoria nodorum; 200 ppm) | Test K disease control rating ([3]; 200 ppm) | Test G disease control rating (Rhizoctonia oryzae; 200 ppm) | Test D disease control rating (Plasmopara viticola) | Test F disease control rating (Phytophthora infestans) | Test A disease control rating (Pythium aphanidermatum) | Test I disease control rating (fusarium graminearium) | Test E disease control rating (Botrytis cinerea; 200 ppm) | Test J disease control rating (Septoria tritici; 40 ppm (*)) | Test B disease control rating ([1]; 40 ppm (*)) | Test L disease control rating ([2]; 40 ppm (*)) | Test H disease control rating (Septoria nodorum; 40 ppm (*)) | Test K disease control rating ([3]; 40 ppm (*)) | Test G disease control rating (Rhizoctonia oryzae; 40 ppm (*)) | Test E disease control rating (Botrytis cinerea; 40 ppm (*))
CC(C)C(C)n1c(-c2c(F)cccc2F)c(Cl)nc(-n2cccn2)c1=O (stereo not drawn) [compound 29] | 100% | 99% | 98% | 99% | 100% | 95% | 0% | 0% | 0% | 0% | 80% |  |  |  |  |  |  | 
C=C(C)Cn1c(-c2c(F)cccc2F)c(Cl)nc(-n2cccn2)c1=O [compound 30] | 100% | 99% | 100% | 100% | 100% | 98% | 0% | 0% | 0% | 0% | 99% |  |  |  |  |  |  | 
O=c1c(-n2cccn2)nc(Cl)c(-c2c(F)cccc2F)n1CC1CCCCC1 [compound 31] | 100% | 0% | 69% | 73% | 88% | 0% | 0% | 0% | 0% | 0% | 97% |  |  |  |  |  |  | 
CCC(C)Cn1c(-c2c(F)cccc2F)c(Cl)nc(-n2ccnn2)c1=O (stereo not drawn) [compound 60] |  |  |  |  |  |  | 0% | 0% | 0% | 0% |  | 40* % | 0* % | 0* % | 0* % | 68* % | 0* % | 95* %
CCC(C)Cn1c(-c2c(F)cccc2F)c(Cl)nc(-n2ccnc2)c1=O (stereo not drawn) [compound 61] | 40% | 0% | 0% | 0% | 0% | 0% | 0% | 0% | 0% | 0% | 0% |  |  |  |  |  |  | 
CCC(C)Cn1c(-c2c(F)cccc2F)c(Cl)nc(-n2nc(C)cc2C)c1=O (stereo not drawn) [compound 62] | 15% | 0% | 0% | 0% | 83% | 0% | 0% | 0% | 0% | 0% | 31% |  |  |  |  |  |  | 
CCC(C)Cn1c(-c2c(F)cccc2F)c(Cl)nc(-n2ccc(C(F)(F)F)n2)c1=O (stereo not drawn) [compound 63] | 90% | 0% | 0% | 0% | 89% | 72% | 0% | 0% | 0% | 0% | 0% |  |  |  |  |  |  | 
CCC(C)Cn1c(-c2c(F)cccc2F)c(Cl)nc(-n2nc(C)cc2C(F)(F)F)c1=O (stereo not drawn) [compound 64] | 71% | 0% | 0% | 0% | 97% | 24% | 16% | 0% | 0% | 0% | 54% |  |  |  |  |  |  | 
CCC(C)Cn1c(-c2c(F)cccc2F)c(Cl)nc(-n2ccc(Br)n2)c1=O (stereo not drawn) [compound 65] | 100% | 33% | 0% | 0% | 98% | 83% | 0% | 0% | 0% | 0% | 99% |  |  |  |  |  |  | 
CC(C)Cn1c(-c2c(F)cccc2F)c(Cl)nc(NN=C2CCCC2)c1=O [compound 73] | 59% | 0% | 0% | 0% | 80% | 0% | 0% | 0% | 0% | 0% | 97% |  |  |  |  |  |  | 
Cc1ccc(-c2c(Cl)nc(-n3cncn3)c(=O)n2CC(C)C)c(C)c1 [compound 79] | 100% | 83% | 92% | 100% | 97% | 46% | 0% | 0% | 0% | 0% | 100% |  |  |  |  |  |  | 
CC(C)Cn1c(-c2cc(Br)c3c(c2)OCO3)c(Cl)nc(-n2cccn2)c1=O [compound 89] | 0% | 0% | 0% | 0% | 0% | 0% | 0% | 0% | 0% | 0% | 0% |  |  |  |  |  |  | 
CC(C)Cn1c(-c2c(F)cccc2F)c(Cl)nc(-c2cnn(C)c2)c1=O [compound 100] | 3% | 0% | 13% | 0% | 26% | 0% | 0% | 0% | 0% | 0% | 0% |  |  |  |  |  |  | 
CC(C)Cn1c(-c2c(F)cccc2F)c(Cl)nc(-c2nccn2C)c1=O [compound 102] | 0% | 0% | 0% | 0% | 0% | 0% | 0% | 0% | 0% | 0% | 0% |  |  |  |  |  |  | 
CC(C)Cn1c(-c2c(F)cccc2F)c(Cl)nc(-c2ccnn2C)c1=O [compound 103] | 3% | 0% | 0% | 0% | 0% | 0% | 0% | 0% | 0% | 0% | 0% |  |  |  |  |  |  | 
O=c1c(-n2cncn2)nc(Cl)c(-c2c(F)cccc2F)n1Cc1ccccc1 [compound 105] | 98% | 0% | 0% | 64% | 100% | 24% | 0% | 0% | 0% | 0% | 100% |  |  |  |  |  |  | 
N#Cc1nc(Cl)c(-c2c(F)cccc2F)n(Cc2ccccc2)c1=O [compound 106] | 12% | 0% | 94% | 0% | 91% | 0% | 0% | 0% | 0% | 0% | 0% |  |  |  |  |  |  | 
CC(c1ccccc1)n1c(-c2c(F)cccc2F)c(Cl)nc(-n2cccn2)c1=O (stereo not drawn) [compound 107] | 93% | 0% | 0% | 0% | 98% | 0% | 0% | 0% | 0% | 69% | 0% |  |  |  |  |  |  | 

Source: patent US20080194585A1, “Fungicidal Pyrazine Derivatives” (priority 2005, published 2008)
